Experimental data as given in patent US20180282297A1, “POLYMORPHS OF 3-(4-AMINO-1-OXOISOINDOLIN-2-YL)PIPERIDINE-2,6-DIONE” (Shenzhen Jingtai Technology Co., Ltd., priority 2017, published 2018).
“Also recorded” adds a separate entry of the source. Where two headings read alike, the source gives them in different places.

Assays:
[1] = comparison polymorphs, cited from earlier work
[2] = comparison polymorphs, cited from earlier work; remark: listed apart in the source
[3] = Study of polymorphic forms of Compound A stirred in water (XRPD); assay type: physicochemical; details: 300 rpm
Experimental: 600 mg Compound A was placed in a 100 mL container. After 40 mL water was added, the container was stirred at 300 rpm at 20° C. After 12 hours, a sample was taken from the container and an XRPD was measured. […] The XRPD, TG, and DSC of Form E are shown in FIGS. 12, 13, and 14, respectively.
600 mg Compound A was placed in a 100 mL container. After 40 mL water was added, the container was stirred at 300 rpm at 25° C. After 48 hours, a sample was taken from the container and an XRPD was measured. […] A sample taken after 168 hours at 25° C. still had the same XRPD as the Form E polymorph described in Chinese Patent No. 1871003.
600 mg Compound A was placed in a 100 mL container. After 40 mL water was added, the container was stirred at 300 rpm at 15° C. After 10 hours, a sample was taken from the container and an XRPD was measured.

[4] = Powder dissolution study in water; assay type: physicochemical; details: 500 mg in 500 mL water, 50 rpm, up to 300 min
Experimental: Samples (2 mL) were collected at 1 min, 2 min, 5 min, 10 min, 15 min, 20 min, 30 min, 40 min, 50 min, 60 min, 80 min, 100 min, 120 min, 150 min, 180 min, 210 min, 240 min, 270 min, and 300 min. Water (2 mL) was added each time when a sample was taken. The XRPD of the solid samples were measured.

[5] = cited from earlier work; for Hygroscopicity: Wt. increase: 5~95% RH
[6] = in acetone; comparison polymorphs; listed as B; cited from earlier work
[7] = cited from earlier work
[8] = Crystallinity of polymorphs; assay type: physicochemical; details: polymorphs of the application
Experimental: XRPD patterns of the polymorphs obtained in the Examples were collected on a D/MAX 2500 diffractometer using the following setting: Cu Kα radiation λ 1.5418 Å, 40 kV, 200 mA, […] 2-40° at 8°/min.

[9] = Stability of polymorphs in solution (suspension in solvent, XRPD of the solid); assay type: physicochemical; details: for Stability in solution: polymorph converted (Cv.) to: suspension kept at 20° C. for 24 hours; for Stability in solution: polymorphic form: ethanol, acetonitrile, tetrahydrofuran, ethyl acetate, and dioxane, 20° C. for 24 hours
Experimental: (§1) 15 mg of the polymorph obtained in Example 1 was placed in a 2 mL container. 1 mL of the each of the following solvents was added: methanol, ethanol, acetone, acetonitrile, tetrahydrofuran, nitromethane, ethyl acetate, or dioxane. The container was sonicated to dissolve Compound A. The resulting supersaturated suspension was kept at 20° C. for 24 hours. After centrifugation, the supernatant was removed, and the solid was dried at 45° C. for 2 hours. The XRPD of the solid was measured.
as §1, with “Example 4” for “Example 1”, “tetrahydrofuran,” for “tetrahydrofuran, nitromethane,”, “acetate, dioxane,” for “acetate,”, “or water.” for “or dioxane.”

[10] = Hygroscopicity, dynamic vapor sorption (DVS); assay type: physicochemical; details: 25° C., 1~95% RH
Experimental: About 3 mg Form DH prepared in Example 1 was subject to dynamic vapor sorption analysis with a VTI-SA+ type dynamic vapor sorption analyzer (US TA Instruments Company). The temperature was 25° C., and the range of the relative humidity was 1-95%.
About 3 mg Form α prepared in Example 4 was subject to Dynamic Vapor Sorption analysis with a VTI-SA+ type dynamic vapor sorption analyzer (US TA Instruments Company). The temperature was 25° C., and the range of the relative humidity was 1-95%.

[11] = Accelerated stability studies (storage, XRPD)
Experimental: 10 mg of Form DH or Form α of the present application was each put in a testing tube. The testing tubes were placed separately in sealed storage bags. The bags were stored under 40° C./75% RH or RT/P2O5. Samples of the polymorph were collected at day 1, day 3, day 5, day 7, day 14, day 21, and day 28 for XRPD measurement.

[12] = Thermal stability (polymorph conversion on heating, XRPD); assay type: physicochemical
Experimental: In one embodiment, Form DH converts to a different polymorph at an elevated temperature (e.g., 170° C. or higher). In one embodiment, when heated to 170° C., Form DH converts to a polymorph characterized by an XRPD pattern substantially similar to that set forth in FIG. 10 (“Form F”). In one embodiment, when heated to 190° C., Form DH converts to a polymorph characterized by an XRPD pattern substantially similar to that set forth in FIG. 11 (“Form A”).
In one embodiment, Form α converts to a different polymorph at an elevated temperature (e.g., 230° C. or higher). In one embodiment, when heated to 230° C., Form α converts to a polymorph characterized by an XRPD pattern substantially similar to that set forth in FIG. 26 (“Form A”).

Nc1cccc2c1CN(C1CCC(=O)NC1=O)C2=O (centres unmarked) [Compound A, 3-(4-amino-1-oxoisoindolin-2-yl)piperidine-2,6-dione]
Crystallinity [1]: Good
Thermal stability ([2]; temperature not given): No Cv.
Polymorphic form by XRPD after stirring in water ([3]; 15° C., 34 hours): Form DH
Polymorphic form by XRPD after stirring in water ([3]; 15° C., after 10 hours): Form E
Polymorphic form by XRPD after stirring in water ([3]; 20° C., 108 hours): Form DH
Polymorphic form by XRPD after stirring in water ([3]; 20° C., after 12 hours): Form E
Polymorphic form by XRPD after stirring in water ([3]; 25° C., after 48 hours): Form E
Polymorphic form by XRPD after stirring in water ([3]; 25° C., after 168 hours): Form E
Dissolution: crystal conversion (Cv.) during powder dissolution [4]: Form E
Hygroscopicity: Wt. increase [5]: No significant

Nc1cccc2c1CN(C1CCC(=O)NC1=O)C2=O (centres unmarked) [Form B, 3-(4-amino-1-oxoisoindolin-2-yl)piperidine-2,6-dione]
Crystallinity ([1]; listed as B): Good
Stability in solution: polymorph converted (Cv.) to [6]: THF, to Form C
Thermal stability: polymorph converted (Cv.) to ([2]; at 175° C.): Cv. to Form A at
Accelerated stability ([7]; 85 days at 40° C./93% RH): Stable for 85
Accelerated stability ([7]; 85 days at RT/0% RH): Stable for 85
Hygroscopicity: Wt. increase [5]: No significant

Nc1cccc2c1CN(C1CCC(=O)NC1=O)C2=O (centres unmarked) [Form C, 3-(4-amino-1-oxoisoindolin-2-yl)piperidine-2,6-dione]
Crystallinity ([1]; listed as C): Good
Hygroscopicity: Wt. loss ([5]; at 95% RH): by 6.03% at

Nc1cccc2c1CN(C1CCC(=O)NC1=O)C2=O (centres unmarked) [Form D, 3-(4-amino-1-oxoisoindolin-2-yl)piperidine-2,6-dione]
Crystallinity ([1]; listed as D): Good

Nc1cccc2c1CN(C1CCC(=O)NC1=O)C2=O (centres unmarked) [Form DH, 3-(4-amino-1-oxoisoindolin-2-yl)piperidine-2,6-dione]
Crystallinity [8]: Good
Stability in solution: polymorph converted (Cv.) to ([9]; in acetone): Form C
Stability in solution: polymorph converted (Cv.) to ([9]; in acetone, listed as DH): Form C in
Stability in solution: polymorphic form ([9]; in water, methanol): maintained its polymorphic form as Form DH; also recorded: stable
Hygroscopicity: Wt. increase [10]: No weight increase
Hygroscopicity: crystal form after DVS [10]: remained unchanged
Hygroscopicity: Wt. increase ([10]; listed as DH): No significant
Hygroscopicity: crystal form after DVS ([10]; listed as DH): No change
Accelerated stability (stable, or polymorph converted to) ([11]; 28 days at 40° C./75% RH): stable
Accelerated stability (stable, or polymorph converted to) ([11]; 28 days at 40° C./75% RH, listed as DH): Stable
Thermal stability: polymorph converted (Cv.) to ([12]; heated to 170° C.): Form F
Thermal stability: polymorph converted (Cv.) to ([12]; heated to 190° C.): Form A
Dissolution: crystal conversion (Cv.) during powder dissolution [4]: did not change

Nc1cccc2c1CN(C1CCC(=O)NC1=O)C2=O (centres unmarked) [Form E, 3-(4-amino-1-oxoisoindolin-2-yl)piperidine-2,6-dione]
Crystallinity ([1]; listed as E): Good

Nc1cccc2c1CN(C1CCC(=O)NC1=O)C2=O (centres unmarked) [Form H, 3-(4-amino-1-oxoisoindolin-2-yl)piperidine-2,6-dione]
Crystallinity [1]: relatively poor

Nc1cccc2c1CN(C1CCC(=O)NC1=O)C2=O (stereo not drawn) [Form α, 3-(4-amino-1-oxoisoindolin-2-yl)piperidine-2,6-dione]
Crystallinity [8]: Good
Stability in solution: polymorphic form ([9]; in methanol, acetone): stable; also recorded: maintained its polymorphic form as Form α
Stability in solution: polymorph converted (Cv.) to ([9]; in water): Form DH
Hygroscopicity: crystal form after DVS [10]: remained unchanged
Hygroscopicity: Wt. increase ([10]; listed as α): No significant
Hygroscopicity: crystal form after DVS ([10]; listed as α): No change
Accelerated stability (stable, or polymorph converted to) ([11]; 28 days at RT/P2O5): did not change
Accelerated stability (stable, or polymorph converted to) ([11]; 28 days at RT/P2O5, listed as α): Stable after
Thermal stability: polymorph converted (Cv.) to ([12]; heated to 230° C.): Form A
Dissolution: crystal conversion (Cv.) during powder dissolution [4]: Form E
